Measured values from patent US8946436B2, “Oxazolidinone compounds and their uses in preparation of antibiotics” (Sichuan Gooddoctor Pharmaceutical Group Co., Ltd., priority 2011, dated 2015).
In brackets after ≈: the same amount, converted by molar mass. Read-outs that look alike come from different tables or passages of the source.

What was measured:
[1] = tested on: ATCC 25923; experiment: Mouse model of systemic infection; type: in vivo, C57 mice; conditions: intravenous
Excerpt: Animal model: SPF grade C57 mice, 4-6 weeks age, weight 18-22 g, ten mice per group;
Infectious strain: ATCC 25923, grown in a MHB medium to a period of logarithmic growth;
Test compounds: Compound 13f prepared according to the methods above, and Linezolid as a control, purchased from Airsea Pharmaceutical Ltd., (Taizhou, ZheJiang Province, China;
Formulation and dosage of the test compounds: To evaluate the treating effect of compound 13f, an animal model of intraperitoneal infection by bacteria was established and grouped into 13f group and Linezolid group. The same dosage of the compound 13f and Linezolid was administrated to the groups, respectively.
The minimum lethal dose (MLD) was determined as follows: Bacterial stock liquid cultured overnight was adjusted to 0.5 McFarland with saline solution, and subsequently subjected to a proper serial dilution. 3-5 dilutions with different concentrations of the bacteria were used to infect mice (10 mice per concentration), respectively, by intraperitoneal injection with a volume of 0.5 mL of the dilution. The minimum concentration at which 100% mice were dead was regarded as MLD. For purpose of ensuring experimental reliability, two control groups (MLD control group and 1/10MLD control group) were used in this experiment. The mortality of the MLD control group was 100%, while the mortality of the 1/10OMLD control group was 30%. […] To enhance virulence of the infectious bacteria, 15% yeast was added into the bacterial liquid for infection.
Experimental animal and grouping: SPF grade C57 mice (purchased from Experiment Animal Center, West China Hospital of Sichuan University), 4-6 weeks old, weighting 18-22 g, were randomly divided into groups, including model group, and treating groups consisting of group administrated with compound 13f at 5 mg/kg, group administrated with compound 13f at 10 mg/kg, group administrated with Linezolid at 5 mg/kg and group administrated with Linezolid at 10 mg/kg, with ten mice per group.
1) Based on the MLD result from the preliminary experiment, the mice were infected by intraperitoneal injection with a saline suspension of ATCC 25923, containing 15% yeast. Injection dosage of the bacteria was 0.2 OD/mice.
2) Administration time and frequency: The above mentioned compounds (compound 13f and Linezolid) were administrated to the mice of the treating groups 1 hour before and 4 hour after the infection, respectively. Meanwhile, the mice of the model group received only solvents in the same volume as that of the compound solution administrated in the treating group. The treating groups includes compound 13f group at 10 mg/kg, compound 13f group at 5 mg/kg, Linezolid group at 10 mg/kg and Linezolid group at 5 mg/kg.
3) Administration route: intravenous injection;
4) Dissolving compounds: The compounds were dissolved with 30% water solution of hydroxypropyl-β-cyclodextrin;
5) Efficacy observation: After infection and administration, the appetites, activities, symptoms and signs of the test mice were observed regularly. The survival rate was monitored every 4 h. The observation lasted for 7 days. During this period of observation, dissection of dying mice was immediately carried out after their death, and a histopathological examination was conducted, if necessary.
6) Evaluation: Main indexes include survival time, survival rate, and CFU count of organ and blood.

[2] = tested on: S. pneumoniae; experiment: In vitro antibacterial activity (MIC), S. pneumoniae; type: cell-based; conditions: S. pneumoniae (10 strains)
Experimental: The test strain was inoculated into the liquid medium and cultured at 37° C. for 16-18 h. The culture liquid and MH medium were put into two blank wells of a 96-well plate, respectively. Then, the absorptions thereof were measured by a Microplate reader. The difference between the absorption values of the culture liquid and MH medium is the adsorption of the bacteria. The concentration of the culture liquid can be calculated according to the formula of 1OD=50 million CFU/mL. The culture liquid was diluted with the MH bouillon culture medium to 5000 CFU/mL for further use.
Compounds 12a, 13 and 14 were dissolved in DMSO to 1 mg/mL, and then filtered with a 0.22 μm filter to obtain the compound solutions. And then they were gradually diluted to a desired concentration (10× final concentration) with the liquid medium, so as to obtain a series of dilutions. The final concentration grade of the dilutions of each tested compound consists of 14 concentrations, which includes: 0.03125 μg/mL, […], 0.125 μg/mL, 0.25 μg/mL, […], 1 μg/mL, 2 μg/mL, 4 μg/mL, 8 μg/mL, 16 μg/mL, 32 μg/mL, 64 μg/mL, 128 μg/mL and 256 μg/mL.
10 μL of each of the compound dilutions above was added into a well of a 96-well plate. 90 μL of the culture liquid (5000 CFU/mL) was added into each of the wells, respectively, mixed with the dilutions to render the tested compound concentration to the final concentration. The resulted mixture was incubated at 37° C. for 16-18 h, and then the OD630 thereof was measured. A culture liquid free of the tested compounds is used as a blank control, and three parallel tests with the same concentration of each compound were performed. The minimum inhibitory concentration (MIC) of each compound on the standard strain of Staphylococcus Aureus and other test strains was determined. Specifically, among the culture liquid contained in the wells of the micro-plate, the first three lowest concentrations under which growth of the test strains could be observed were chose for further evaluation of the MIC. A culture liquid free of tested compounds was used as a blank control. Each of the culture liquids was homogenized independently, and then was diluted with a sterile saline. Each of the diluted culture liquids was plated onto a MH bouillon plate and incubated at 37° C. for 20 h in incubator. After the incubation, the number of the colonies on each plate was counted. As compared with the blank control group, the lowest concentration of each of the test compound groups, at which 80% reduction in the colony number of the strains was achieved, was recorded as the MIC.

[3] = 10 mg/kg, 1 hour before and 4 hour after infection, 7 days observation

| SMILES | in vivo treatment effect and protection effect compared with Linezolid ([1]; 5 mg/kg) | time after infection at which death of mice was observed ([1]; 5 mg/kg) | mortality ([1]; 5 mg/kg, in 24 h) | therapeutic effect compared with linezolid ([1]; 10 mg/kg) | survival rate [1, 3] | MIC ([2]; Streptococcus pneumoniae, read-out: MIC) | mortality ([1]; 5 mg/kg, in 48 h) | mortality ([1]; 5 mg/kg, in 72 h) | protection rate [1, 3] | MIC [2] |
| --- | --- | --- | --- | --- | --- | --- | --- | --- | --- | --- |
| CC(=O)NC[C@H]1CN(c2ccc(-n3cc(-c4ccccn4)cn3)c(F)c2)C(=O)O1 [Compound 13f, (S)-N-((3-(3-fluoro-4-(4-(pyridin-2-yl)-1H-pyrazol-1-yl)phenyl)-2-oxooxazolidin-5-yl)methyl)acetamide] | better in vivo treatment effect and protection effect | 5 h | 20% | same therapeutic effect as linezolid | 100% | 0.25 to 1 µg/mL (≈ 0.632 to 2.53 µM) |  |  |  |  |
| CC(=O)NC[C@H]1CN(c2ccc(N3CCOCC3)c(F)c2)C(=O)O1 [Linezolid, reference compound] |  | 5 h | 50% |  |  |  | 70% | 100% | 100% | 2 to 32 µg/mL |
